Legend:
crabgrass = experiment: Test B pre/postemergence crabgrass; format: in vivo, Digitaria sanguinalis
Outline: (§1)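 Test chemicals in a non-phytotoxic solvent mixture with surfactant were sprayed preemergence onto planted seeds and postemergence onto plants 2 to 18 cm tall (1- to 4-leaf stage). After twelve to sixteen days in a greenhouse, injury was visually rated against untreated controls from 0 (no effect) to 10 (complete control).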

velvetleaf = experiment: Test B pre/postemergence velvetleaf; format: in vivo, Abutilon theophrasti
Outline: as §1

giant foxtail = experiment: Test B pre/postemergence giant foxtail; format: in vivo, Setaria faberii
Outline: as §1

bamyardgrass = experiment: Test B flood test barnyardgrass; format: in vivo, Echinochloa crus-galli
Outline: (§2)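 Flood test on plants grown to the 2-leaf stage; treated plants kept in greenhouse twelve to sixteen days, then visually rated against controls on a 0 (no effect) to 10 (complete control) scale.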

corn = experiment: Test B pre/postemergence corn; format: in vivo, Zea mays
Outline: as §1

duck salad = experiment: Test B flood test duck salad; format: in vivo, Heteranthera limosa
Outline: as §2

cocklebur = experiment: Test B pre/postemergence cocklebur; format: in vivo, Xanthium strumarium
Outline: as §1

surinam grass = experiment: Test B pre/postemergence surinam grass; format: in vivo, Brachiaria decumbens
Outline: as §1

sugar beet = experiment: Test B pre/postemergence sugar beet; format: in vivo, Beta vulgaris
Outline: as §1

rape = experiment: Test B pre/postemergence rape; format: in vivo, Brassica napus
Outline: as §1

wheat = experiment: Test B pre/postemergence wheat; format: in vivo, Triticum aestivum
Outline: as §1

rice = experiment: Test B flood test rice; format: in vivo, Oryza sativa
Outline: as §2

smallflower flatsedge = experiment: Test B flood test smallflower flatsedge; format: in vivo, Cyperus difformis
Outline: as §2

wild oat = experiment: Test B pre/postemergence wild oat; format: in vivo, Avena fatua
Outline: as §1

blackgrass = experiment: Test B pre/postemergence blackgrass; format: in vivo, Alopecurus myosuroides
Outline: as §1

purple nutsedge = experiment: Test B pre/postemergence purple nutsedge; format: in vivo, Cyperus rotundus
Outline: as §1

bedstraw = experiment: Test B pre/postemergence bedstraw; format: in vivo, Galium aparine; conditions: Preemergence
Outline: as §1

pigweed = experiment: Test B pre/postemergence pigweed; format: in vivo, Amaranthus retroflexus
Outline: as §1

morningglory = experiment: Test B pre/postemergence morningglory; format: in vivo, Ipomoea hederacea
Outline: as §1

soybean = experiment: Test B pre/postemergence soybean; format: in vivo, Glycine max; conditions: for Plant response rating, Soybean: Rate 500 g/ha
Outline: as §1

[1] = Postemergence, Rate 62 g/ha, scale of 0 to 10, 0 is no effect, 10 is complete control
[2] = Postemergence, Rate 125 g/ha, scale of 0 to 10 where 0 is no effect and 10 is complete control
[3] = Postemergence, Rate 250 g/ha, scale of 0 to 10, 0 is no effect, 10 is complete control
[4] = Postemergence, Rate 500 g/ha, scale of 0 to 10 where 0 is no effect and 10 is complete control
[5] = Preemergence, Rate 62 g/ha, scale 0 to 10 (0 no effect, 10 complete control)
[6] = Preemergence, Rate 125 g/ha, scale of 0 to 10 where 0 is no effect and 10 is complete control
[7] = Preemergence, Rate 500 g/ha, scale of 0 to 10 where 0 is no effect and 10 is complete control
[8] = Rate 62 g/ha, flood test species, Pre-emergence, visual evaluation after twelve to sixteen days
[9] = Rate 125 g/ha, under heading Pre-emergence, flood test species, visual evaluation after twelve to sixteen days
[10] = Rate 250 g/ha, Pre-emergence (flood test species), scale 0 to 10, 0 is no effect, 10 is complete control
[11] = Rate 500 g/ha, Pre-emergence section of Table B, 0 to 10 scale (0 no effect, 10 complete control)

## CC(C)N(C(=O)n1oc(=O)n(C(CF)CF)c1=O)c1ccc(F)cc1F [Compound 595]
crabgrass; [1]
  Crabgrass plant response rating: 5
crabgrass; [2]
  Plant response rating, Crabgrass: 8
crabgrass; [3]
  Crabgrass plant response rating: 9
crabgrass; [4]
  Plant response rating, Crabgrass: 9
crabgrass; [5]
  Crabgrass plant response rating: 7
crabgrass; [6]
  Crabgrass plant response rating: 9
crabgrass; [7]
  Plant response rating, Crabgrass: 10
velvetleaf; [2]
  Plant response rating, Velvetleaf: 4
velvetleaf; [3]
  Velvetleaf plant response rating: 7
velvetleaf; [4]
  Plant response rating, Velvetleaf: 7
velvetleaf; [5]
  Velvetleaf plant response rating: 7
velvetleaf; [6]
  Velvetleaf plant response rating: 7
velvetleaf; [7]
  Plant response rating, Velvetleaf: 9
Giant foxtail; [1]
  Giant foxtail plant response rating: 8
Giant foxtail; [2]
  Plant response rating, Giant foxtail: 9
Giant foxtail; [3]
  Giant foxtail plant response rating: 9
Giant foxtail; [4]
  Plant response rating, Giant foxtail: 9
Giant foxtail; [5]
  Giant foxtail plant response rating: 10
Giant foxtail; [6]
  Giant foxtail plant response rating: 10
Giant foxtail; [7]
  Plant response rating, Giant foxtail: 9
bamyardgrass; [8]
  Plant response rating, Barnyardgrass (0 to 10 scale, 0 is no effect, 10 is complete control): 0
bamyardgrass; [9]
  Barnyardgrass plant response rating (0 to 10 scale, 0 is no effect, 10 is complete control): 0
bamyardgrass; [10]
  Barnyardgrass plant response rating: 0
bamyardgrass; [11]
  Barnyardgrass plant response rating: 0
corn; [1]
  Corn plant response rating: 0
corn; [2]
  Plant response rating, Corn: 0
corn; [3]
  Corn plant response rating: 2
corn; [4]
  Plant response rating, Corn: 3
corn; [5]
  Corn plant response rating: 0
corn; [6]
  Corn plant response rating: 0
corn; Preemergence, Rate 250 g/ha
  Corn plant response rating (0 to 10 scale): 4
corn; [7]
  Plant response rating, Corn: 6
Duck salad; [8]
  Plant response rating, Ducksalad (0 to 10 scale, 0 is no effect, 10 is complete control): 0
Duck salad; [9]
  Ducksalad plant response rating (0 to 10 scale, 0 is no effect, 10 is complete control): 0
Duck salad; [10]
  Ducksalad plant response rating: 0
Duck salad; [11]
  Ducksalad plant response rating: 0
cocklebur; [1]
  Cocklebur plant response rating: 0
cocklebur; [2]
  Plant response rating, Cocklebur: 0
cocklebur; [3]
  Cocklebur plant response rating: 0
cocklebur; [4]
  Plant response rating, Cocklebur: 2
cocklebur; [6]
  Cocklebur plant response rating: 0
cocklebur; Preemergence, Rate 250 g/ha
  Cocklebur plant response rating (0 to 10 scale): 0
cocklebur; [7]
  Plant response rating, Cocklebur: 0
Surinam grass; [1]
  B. signalgrass plant response rating: 0
Surinam grass; [2]
  Plant response rating, B. signalgrass: 0
Surinam grass; [3]
  B. signalgrass plant response rating: 6
Surinam grass; [4]
  Plant response rating, B. signalgrass: 6
Surinam grass; [5]
  B. signalgrass plant response rating: 2
Surinam grass; [6]
  B. signalgrass plant response rating: 6
Surinam grass; Preemergence, Rate 250 g/ha
  B. signalgrass plant response rating (0 to 10 scale, 0 is no effect, 10 is complete control): 7
Surinam grass; [7]
  B. signalgrass plant response rating: 9
Sugar beet; [2]
  Plant response rating, Sugarbeets: 3
Sugar beet; [3]
  Sugarbeets plant response rating: 3
Sugar beet; [4]
  Plant response rating, Sugarbeets: 3
Sugar beet; [5]
  Sugarbeets plant response rating: 6
Sugar beet; [6]
  Sugarbeets plant response rating: 8
Sugar beet; [7]
  Plant response rating, Sugarbeets: 9
rape; [1]
  Rape plant response rating: 0
rape; [2]
  Plant response rating, Rape: 0
rape; [3]
  Rape plant response rating: 2
rape; [4]
  Plant response rating, Rape: 2
rape; [5]
  Rape plant response rating: 4
rape; [6]
  Rape plant response rating: 4
rape; [7]
  Plant response rating, Rape: 10
wheat; [2]
  Plant response rating, Wheat: 0
wheat; [3]
  Wheat plant response rating: 2
wheat; [4]
  Plant response rating, Wheat: 3
wheat; [5]
  Wheat plant response rating: 0
wheat; [6]
  Wheat plant response rating: 1
wheat; [7]
  Plant response rating, Wheat: 6
rice; [8]
  Plant response rating, Rice (0 to 10 scale, 0 is no effect, 10 is complete control): 0
rice; [9]
  Rice plant response rating (0 to 10 scale, 0 is no effect, 10 is complete control): 0
rice; [10]
  Rice plant response rating: 0
rice; [11]
  Rice plant response rating: 0
Smallflower flatsedge; [8]
  Plant response rating, S. Flatsedge (0 to 10 scale, 0 is no effect, 10 is complete control): 0
Smallflower flatsedge; [9]
  S. Flatsedge plant response rating (0 to 10 scale, 0 is no effect, 10 is complete control): 0
Smallflower flatsedge; [10]
  S. Flatsedge plant response rating: 0
Smallflower flatsedge; [11]
  S. Flatsedge plant response rating: 0
Wild oat; [2]
  Plant response rating, Wild oats: 0
Wild oat; [3]
  Wild oats plant response rating: 2
Wild oat; [4]
  Plant response rating, Wild oats: 4
Wild oat; [5]
  Wild oats plant response rating: 3
Wild oat; [6]
  Wild oats plant response rating: 8
Wild oat; [7]
  Plant response rating, Wild oats: 9
blackgrass; [1]
  Blackgrass plant response rating: 3
blackgrass; [2]
  Plant response rating, Blackgrass: 7
blackgrass; [3]
  Blackgrass plant response rating: 9
blackgrass; [4]
  Plant response rating, Blackgrass: 9
blackgrass; [5]
  Blackgrass plant response rating: 6
blackgrass; [6]
  Blackgrass plant response rating: 9
blackgrass; Preemergence, Rate 250 g/ha
  Blackgrass plant response rating (0 to 10 scale): 10
blackgrass; [7]
  Blackgrass plant response rating: 10
Purple nutsedge; [1]
  Nutsedge plant response rating: 0
Purple nutsedge; [2]
  Plant response rating, Nutsedge: 0
Purple nutsedge; [3]
  Nutsedge plant response rating: 0
Purple nutsedge; [4]
  Plant response rating, Nutsedge: 5
Purple nutsedge; [6]
  Nutsedge plant response rating: 3
Purple nutsedge; [7]
  Plant response rating, Nutsedge: 4
bedstraw; Rate 62 g/ha, scale 0 to 10 (0 no effect, 10 complete control)
  Bedstraw plant response rating: 0
bedstraw; Rate 125 g/ha, scale of 0 to 10 where 0 is no effect and 10 is complete control
  Bedstraw plant response rating: 8
bedstraw; Rate 500 g/ha, scale of 0 to 10 where 0 is no effect and 10 is complete control
  Bedstraw plant response rating: 10
pigweed; [2]
  Plant response rating, Redroot pigweed: 0
pigweed; [3]
  Redroot pigweed plant response rating: 3
pigweed; [4]
  Plant response rating, Redroot pigweed: 7
pigweed; [5]
  Redroot pigweed plant response rating: 0
pigweed; [6]
  Redroot pigweed plant response rating: 10
pigweed; [7]
  Plant response rating, Redroot pigweed: 10
morningglory; [1]
  Morningglory plant response rating: 1
morningglory; [2]
  Plant response rating, Morningglory: 2
morningglory; [3]
  Morningglory plant response rating: 3
morningglory; [4]
  Plant response rating, Morningglory: 6
morningglory; [5]
  Morningglory plant response rating: 0
morningglory; [6]
  Morningglory plant response rating: 0
morningglory; [7]
  Plant response rating, Morningglory: 6
soybean; [3]
  Soybean plant response rating: 4
soybean; Postemergence, scale of 0 to 10 where 0 is no effect and 10 is complete control
  Plant response rating, Soybean: 4
soybean; [5]
  Soybean plant response rating: 0
soybean; [6]
  Soybean plant response rating: 1
soybean; Preemergence, scale of 0 to 10 where 0 is no effect and 10 is complete control
  Plant response rating, Soybean: 4
